Values joined by “and” are separate entries in the source; they are usually repeats but may differ in a detail not shown here. Equal entries are not always repeated. Where two headings read alike, the source gives them in different places.
How the values were obtained:
[1] = target: T1, dengue virus capping enzyme (Dengue virus type 2, UniProt P29990); assay: biochemical; assay type: binding, dengue virus type 2 (strain 16681)
T1 sequence (P29990 2492-2758): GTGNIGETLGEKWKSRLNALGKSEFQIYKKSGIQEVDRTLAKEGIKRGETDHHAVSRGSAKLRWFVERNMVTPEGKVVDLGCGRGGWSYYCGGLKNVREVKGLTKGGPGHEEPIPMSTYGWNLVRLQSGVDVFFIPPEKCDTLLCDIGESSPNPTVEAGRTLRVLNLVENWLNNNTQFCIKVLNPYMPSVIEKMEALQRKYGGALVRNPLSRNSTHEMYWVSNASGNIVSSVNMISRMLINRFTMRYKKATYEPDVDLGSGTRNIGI

[2] = target: yellow fever virus capping enzyme (Yellow fever virus, UniProt P03314); assay: biochemical; assay type: binding, yellow fever virus (strain 17D); conditions: read-out: FP_YF_KI_AVG_YF_M
Sequence of yellow fever virus capping enzyme (P03314 2507-2774 limits assumed): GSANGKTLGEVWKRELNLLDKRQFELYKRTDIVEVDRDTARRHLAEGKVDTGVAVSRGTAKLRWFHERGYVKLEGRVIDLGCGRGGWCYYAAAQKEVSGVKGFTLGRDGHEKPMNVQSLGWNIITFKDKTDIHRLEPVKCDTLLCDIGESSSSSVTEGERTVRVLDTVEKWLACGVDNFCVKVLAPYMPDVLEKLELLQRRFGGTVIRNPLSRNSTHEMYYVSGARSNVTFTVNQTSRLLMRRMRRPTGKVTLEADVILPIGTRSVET

[3] = test system: BHK-pD2hRucPac cells; assay: Cell viability (CellTiter-Glo) in replicon assay; conditions: read-out: Replicon Assay_CC50_M; Table 2-1

SMILES	Ki ([1]; read-out: FP_DEN_Ki_AVG_DEN_M)	Ki [2]	also measured
O=C1C(=Cc2cccc(Br)c2)SC(=S)N1CN1CCCCC1 [BG21]	42 µM	27 µM	
CCN(CC)c1ccc(N2C(=O)/C(=C/c3ccc(C(=O)O)cc3)SC2=S)cc1 [BG125]	2 µM	3 µM	CC50 [3]: 15 µM
CCc1ccc(C=C2SC(=O)NC2=O)cc1 [BG144]	20 µM	38 µM	
O=C1NC(=O)C(=Cc2cc3c(cc2[N+](=O)[O-])OCO3)S1 [BG145]	8 µM	9 µM	
O=C1NC(=O)C(=Cc2ccccc2[N+](=O)[O-])S1 [BG146]	55 µM	66 µM	
CC(C)c1ccc(C=C2SC(=S)N(CCC(=O)O)C2=O)cc1 [BG183]	12 µM	13 µM	
COc1ccccc1/C=C1\SC(=O)N(CC(=O)O)C1=O [BG215]	866 µM		CC50 [3]: 100 µM
O=C(O)CN1C(=O)C(=Cc2cc(Br)cc(Cl)c2O)SC1=S [BG222]	≥ 100 µM	≥ 100 µM	
O=C(O)CN1C(=O)/C(=C/c2ccc(F)c(Br)c2)SC1=S [BG224]	27 µM	27 µM	
O=C(O)CN1C(=O)C(=Cc2cc(Cl)cc(Cl)c2O)SC1=S [BG225]	≥ 100 µM	≥ 100 µM	
O=C(O)CN1C(=O)SC(=Cc2ccc(Cl)cc2)C1=O [BG226]		≥ 100 µM	
O=C(O)CN1C(=O)C(=Cc2cccc(Cl)c2Cl)SC1=S [BG227]	27 µM	34 µM	
O=C(O)CN1C(=O)/C(=C/c2ccc(Cl)c(Cl)c2)SC1=S [BG228]	11 µM	16 µM	
O=C(O)CN1C(=O)C(=Cc2ccc(Cl)cc2Cl)SC1=S [BG229]	24 µM	25 µM	
O=C(O)CN1C(=O)C(=Cc2cc(Br)ccc2F)SC1=S [BG230]	17 µM	23 µM	
NC(=O)c1c(NC(=O)CN2C(=O)C(=Cc3ccc(Cl)cc3Cl)SC2=S)sc2c1CCCC2 [BG265]	46 µM		
CCc1ccc(/C=C2\SC(=S)N(CCC(=O)Nc3ccc(C(=O)O)cc3)C2=O)cc1 [BG273]	4 µM		
O=C(O)CCN1C(=O)/C(=C/c2ccc(-c3ccc(Cl)c(Cl)c3)o2)SC1=S [BG281]	2 µM		

SMILES	Ki ([1]; read-out: FP_DEN_Ki_AVG_DEN_M)	Ki [2]	also measured
O=C(O)CCN1C(=O)C(=Cc2ccc(-c3ccc(Br)cc3)o2)SC1=S [BG286]	≥ 100 µM		
O=C(O)CCN1C(=O)/C(=C/c2ccc(-c3ccccc3Cl)o2)SC1=S [BG290]	≥ 100 µM		
O=C(O)CCN1C(=O)C(=Cc2ccc(-c3ccccc3)o2)SC1=S [BG292]	≥ 100 µM		
COc1cccc(/C=C2\SC(=S)N(CC(=O)O)C2=O)c1OC [BG311]		34 µM	CC50 [3]: 100 µM
O=C(O)CN1C(=O)C(=CC=Cc2ccccc2)SC1=S [BG326]	77 µM	≥ 100 µM	
COc1ccccc1C=C1SC(=S)N(CCC(=O)O)C1=O [BG-310]		44 µM	CC50 [3]: 100 µM
O=C(O)CN1C(=O)/C(=C/c2cccc(Cl)c2Cl)SC1=S [BG-317]			Ki ([1]; Ki (GTP displacement)): 27 µM
O=C(O)CN1C(=O)/C(=C/c2ccc(Cl)c(Cl)c2)SC1=S [BG-318]			Ki ([1]; Ki (GTP displacement)): 11 µM and 11.3 µM
O=C(O)CN1C(=O)/C(=C/c2ccc(Cl)cc2Cl)SC1=S [BG-319]			Ki ([1]; Ki (GTP displacement)): 24 µM
O=C(O)CCN1C(=O)C(=Cc2ccc(F)cc2)SC1=S [BG-321]	≥ 100 µM	≥ 100 µM	
CC(C)c1ccc(/C=C2\SC(=S)N(CCC(=O)O)C2=O)cc1 [BG-322]			Ki ([1]; Ki (GTP displacement)): 12 µM
O=C(O)CN1C(=O)/C(=C/c2ccccc2)SC1=S [BG-325]	≥ 100 µM	≥ 100 µM	
O=C(O)CCN1C(=O)C(=Cc2ccccc2)SC1=S [BG-327]	≥ 100 µM	≥ 100 µM	
O=C(O)CCN1C(=O)C(=Cc2ccc(Cl)c(Cl)c2)SC1=S [BG-328]	14 µM	12 µM	Ki ([1]; read-out: Ki (GTP displacement)): 13.6 µM
O=C(O)CCN1C(=O)/C(=C/c2ccccc2F)SC1=S [BG-329]	≥ 100 µM	≥ 100 µM	
O=C(O)CCCN1C(=O)/C(=C/c2ccc(Cl)cc2Cl)SC1=S [BG-331]	15 µM	25 µM	
COC(=O)CCN1C(=O)C(=Cc2ccc(Cl)cc2Cl)SC1=S [BG-332]	≥ 100 µM	≥ 100 µM	

From patent publication US9206412B2, “Thioxothiazolidine inhibitors” (Colorado State University Research Foundation, priority 2012, dated 2015)
